In PubChem BioAssay AID248 (DTP/NCI, 2004):
Values joined by “and” are separate entries in the source; they are usually repeats but may differ in a detail not shown here. Equal values may be shown once. Inconclusive results and toxic doses are left out. No stated cut-off is given here; in the data, active means T/C of 150% or more; inactive means T/C below 125%. Peptide text beside a SMILES is read from it.

Tested on: L1210 leukemia ip in BDF1 mice, survival T/C
Experiment: NCI In Vivo Anticancer Drug Screen. Data for tumor model L1210 Leukemia (intraperitoneal) in B6D2F1 (BDF1) mice
Details: endpoint: mean survival time, higher = longer survival
In short: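 Tumor cells were implanted, animals were treated, and survival was followed. The result divides the treated measurement by the vehicle-control measurement.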

[1] = dose: 100.0 mg/kg/injection, schedule: Q01DX009 (ip), vehicle: saline with Tween-80
[2] = dose: 200.0 mg/kg/injection, schedule: Q01DX009 (ip), vehicle: saline with Tween-80
[3] = dose: 400.0 mg/kg/injection, schedule: Q01DX009 (ip), vehicle: saline with Tween-80
[4] = dose: 100.0 mg/kg/injection, schedule: Q01DX001 (ip), vehicle: saline
[5] = dose: 200.0 mg/kg/injection, schedule: Q01DX001 (ip), vehicle: saline
[6] = dose: 400.0 mg/kg/injection, schedule: Q01DX001 (ip), vehicle: saline
[7] = dose: 100.0 mg/kg/injection, schedule: Q01DX009 (ip), vehicle: saline
[8] = dose: 100.0 mg/kg/injection, schedule: Q04DX003 (ip), vehicle: saline
[9] = dose: 200.0 mg/kg/injection, schedule: Q04DX003 (ip), vehicle: saline
[10] = dose: 200.0 mg/kg/injection, schedule: Q04DX003 (ip), vehicle: saline with Tween-80
[11] = dose: 100.0 mg/kg/injection, schedule: Q04DX003 (ip), vehicle: saline with Tween-80

Measured: T/C

Cc1ccc2c(c1C)-c1c(ccc(C)c1C)C(=O)C2=O
inactive: dose: 50.0 mg/kg/injection, schedule: Q04DX002 (ip), vehicle: Klucel (hydroxypropylcellulose) (HPC) 91 % of control | dose: 100.0 mg/kg/injection, schedule: Q04DX002 (ip), vehicle: Klucel (hydroxypropylcellulose) (HPC) 102 % of control and 113 % of control | dose: 200.0 mg/kg/injection, schedule: Q04DX002 (ip), vehicle: Klucel (hydroxypropylcellulose) (HPC) 94 % of control | dose: 400.0 mg/kg/injection, schedule: Q04DX002 (ip), vehicle: Klucel (hydroxypropylcellulose) (HPC) 94 % of control and 100 % of control

CC(=O)NCCOc1ccc([N+](=O)[O-])cc1Cl
inactive: dose: 100.0 mg/kg/injection, schedule: Q01DX001 (ip), vehicle: Klucel (hydroxypropylcellulose) (HPC) 100 % of control | dose: 200.0 mg/kg/injection, schedule: Q01DX001 (ip), vehicle: Klucel (hydroxypropylcellulose) (HPC) 110 % of control

NC(=O)c1ccccc1NC(=O)Nc1cccc(F)c1
inactive: dose: 25.0 mg/kg/injection, schedule: Q01DX009 (ip), vehicle: saline with Tween-80 89 % of control | dose: 50.0 mg/kg/injection, schedule: Q01DX009 (ip), vehicle: saline with Tween-80 95 % of control | [1] 104 % of control | [2] 90 % of control | [3] 96 % of control

CCCCCCCCCCCCc1cc2ccccc2c2ccccc12
inactive: [4] 98 % of control | [5] 95 % of control | [6] 89 % of control

N#CCCNCCC#N
inactive: [7] 103 % of control | [8] 102 % of control | dose: 200.0 mg/kg/injection, schedule: Q01DX009 (ip), vehicle: saline 97 % of control | [9] 100 % of control | dose: 400.0 mg/kg/injection, schedule: Q01DX009 (ip), vehicle: saline 104 % of control | dose: 400.0 mg/kg/injection, schedule: Q04DX003 (ip), vehicle: saline 96 % of control

Nc1nc(Br)cs1
inactive: [8] 102 % of control | [9] 102 % of control

COC(=O)CCC(N=C=O)C(=O)OC (stereo not drawn)
inactive: [4] 101 % of control | [5] 98 % of control | [6] 106 % of control

COc1ccccc1CN1CCCN(Cc2ccccc2OC)C1c1ccc(N(C)C)cc1
inactive: dose: 50.0 mg/kg/injection, schedule: Q01DX001 (ip), vehicle: saline 98 % of control | [4] 98 % of control | [5] 95 % of control | [6] 88 % of control

OC1c2ccccc2-c2ccc(N(Cc3ccccc3)Cc3ccccc3)cc21 (stereo not drawn)
inactive: [10] 87 % of control

CC(NC(=O)C(CCC(=O)O)NC(=O)C(N)Cc1c[nH]c2ccccc12)C(=O)NCC(=O)NC(Cc1c[nH]c2ccccc12)C(=O)NC(CCC(=O)O)C(=O)NC(C)C(=O)NCC(=O)NCC(=O)O (stereo not drawn) (H-WEAGWEAGG-OH; configuration not given here)
inactive: dose: 50.0 mg/kg/injection, schedule: Q01DX001 (ip), vehicle: carboxymethylcellulose (CMC) 96 % of control | dose: 100.0 mg/kg/injection, schedule: Q01DX001 (ip), vehicle: carboxymethylcellulose (CMC) 98 % of control | dose: 200.0 mg/kg/injection, schedule: Q01DX001 (ip), vehicle: carboxymethylcellulose (CMC) 96 % of control

CCCCCCCCCCCCCCCC(=O)OC(C)CCC1CCCO1 (stereo not drawn)
inactive: [4] 90 % of control | [5] 95 % of control | [6] 90 % of control

Nc1cc(O)cc(O)c1
inactive: [1] 95 % of control | [11] 91 % of control | [2] 95 % of control | [10] 98 % of control | [3] 102 % of control | dose: 400.0 mg/kg/injection, schedule: Q04DX003 (ip), vehicle: saline with Tween-80 89 % of control

NC(N)=NC(N)=Nc1ccc(Cl)c(Cl)c1
inactive: dose: 25.0 mg/kg/injection, schedule: Q01DX009 (ip), vehicle: Klucel (hydroxypropylcellulose) (HPC) 100 % of control | dose: 25.0 mg/kg/injection, schedule: Q01DX009 (ip), vehicle: saline 104 % of control | dose: 50.0 mg/kg/injection, schedule: Q01DX009 (ip), vehicle: Klucel (hydroxypropylcellulose) (HPC) 104 % of control | dose: 50.0 mg/kg/injection, schedule: Q01DX009 (ip), vehicle: saline 98 % of control | dose: 75.0 mg/kg/injection, schedule: Q01DX009 (ip), vehicle: Klucel (hydroxypropylcellulose) (HPC) 102 % of control | [7] 91 % of control | [11] 100 % of control

c1ccc([P+](c2ccccc2)(c2ccccc2)C2CC2)cc1
inactive: dose: 5.0 mg/kg/injection, schedule: Q01DX001 (ip), vehicle: saline 93 % of control | dose: 10.0 mg/kg/injection, schedule: Q01DX001 (ip), vehicle: saline 101 % of control | dose: 20.0 mg/kg/injection, schedule: Q01DX001 (ip), vehicle: saline 104 % of control | dose: 40.0 mg/kg/injection, schedule: Q01DX001 (ip), vehicle: saline 104 % of control
